Results published in publication PMC5673977, “Transport Deficiency Is the Molecular Basis of Candida albicans Resistance to Antifungal Oligopeptides” (Frontiers in Microbiology, 2017).
Where a SMILES comes first, the peptide text is derived from it. [ ]: non-standard residue; d: D form. Nva = CCC[C@H](N)C(=O)O

Columns and labels:
[1] = test system: peptidases present in cytoplasmic extracts obtained from NF1, NF2, NF3, LNF1, LNF2, LNF3, and SC 5314 cells; test: Peptide cleavage rate in cell-free extract (Cd-ninhydrin); assay type: in vitro ADME, Candida albicans; conditions: pH 6.5, 30°C
Protocol: Yeast cells from the overnight culture in YNB-SG were harvested by centrifugation and washed with cold 25 mM potassium phosphate buffer (pH 6.5). Cells were then suspended in a minimal amount of the buffer and disrupted with the French press. The resulting suspension was centrifuged (35,000 ×g, 4°C, 45 min), and the supernatant was used as a cell-free extract for the determination of peptide cleavage rates.
The incubation mixtures, consisting of 10 mL of a 200 mM peptide solution in 50 mM potassium phosphate buffer (pH 6.5) and 2 mL of an appropriately diluted crude extract (final protein concentration, 0.1–0.5 mg mL^-1), were incubated at 30°C. At 5 min intervals, 2 mL aliquots were withdrawn and heated at 100°C for 3 min. The resulting suspensions were centrifuged to remove the protein precipitates and the concentration of free amino acids in the supernatant was determined by the Cd-ninhydrin procedure ([Doi et al., 1981]).

[2] = test system: C. albicans isolates NF1-3 and LNF1-3; test: Initial peptide uptake rate by isolates resistant to F2/F3; assay type: cell-based, Candida albicans; conditions: all six isolates NF1-3, LNF1-3; Figure 4
Protocol: (§1) Yeast cells grown exponentially in the YNB-SG medium were harvested by centrifugation (3000 ×g, 5 min), washed with 50 mM potassium phosphate buffer (pH 5.0 or 6.5), and suspended in the same buffer containing 1% glucose, to a final cell density corresponding to A660 ≅ 1.0. The cell suspension was incubated at 30°C. After 10 min, an oligopeptide solution was added, to give a final concentration of 100 μM. At that moment and at 5 min intervals thereafter, 2 mL samples of the cell suspension were withdrawn, immediately filtered through the Whatman GF/A filters and the filtrates were used to determine the residual peptide concentration. Then, the 1 mL portions of the filtrates were taken and combined with 1.25 mL aliquots of a solution containing 4% Na2B4O7 × 10 H2O and 0.8 mg mL^-1 of 2,4,6-trinitrobenzenesulfonate. The reaction was carried out at 37°C for 30 min. The A420 values were measured and the peptide concentration was read from the appropriate standard curve. Data were plotted as nanomoles of an oligopeptide, taken up by 1 mg (dry weight) of cells versus time. The initial uptake velocities were determined from the slopes of the linear part of the curves, in the 0- to 10-min region.
It is therefore clear that the diminished sensitivity of all six isolates to F2 and F3 was due to the reduced uptake, most likely by permease(s) of the PTR system.

[3] = test system: C. albicans SC5314; test: Initial peptide uptake rate; assay type: cell-based, Candida albicans; conditions: SC 5314; cells grown in YNB-SG; 50 mM potassium phosphate buffer (pH 5.0 or 6.5) + 1% glucose, 30°C, 100 μM peptide, residual peptide by TNBS A420, slope 0- to 10-min
Protocol: as §1

[4] = test system: C. albicans opt1–opt5Δ; test: Initial peptide uptake rate; assay type: cell-based, Candida albicans; conditions: 50 mM potassium phosphate buffer (pH 5.0 or 6.5) + 1% glucose, 30°C, 100 μM peptide, TNBS A420, slope 0- to 10-min
Protocol: as §1

[5] = test system: C. albicans opt1–opt5Δ ptr2Δ ptr22Δ; test: Initial peptide uptake rate; assay type: cell-based, Candida albicans; conditions: 50 mM potassium phosphate buffer (pH 5.0 or 6.5) + 1% glucose, 30°C, 100 μM peptide, TNBS A420, slope 0- to 10-min
Protocol: as §1

[6] = test system: C. albicans opt2Δ opt3Δ; test: Initial peptide uptake rate; assay type: cell-based, Candida albicans; conditions: 50 mM potassium phosphate buffer (pH 5.0 or 6.5) + 1% glucose, 30°C, 100 μM peptide, TNBS A420, slope 0- to 10-min
Protocol: as §1

[7] = test system: C. albicans opt5Δ; test: Initial peptide uptake rate; assay type: cell-based, Candida albicans; conditions: 50 mM potassium phosphate buffer (pH 5.0 or 6.5) + 1% glucose, 30°C, 100 μM peptide, TNBS A420, slope 0- to 10-min
Protocol: as §1

[8] = test system: C. albicans opt1Δ; test: Initial peptide uptake rate; assay type: cell-based, Candida albicans; conditions: 50 mM potassium phosphate buffer (pH 5.0 or 6.5) + 1% glucose, 30°C, 100 μM peptide, TNBS A420, slope 0- to 10-min
Protocol: as §1

[9] = test system: C. albicans opt4Δ; test: Initial peptide uptake rate; assay type: cell-based, Candida albicans; conditions: 50 mM potassium phosphate buffer (pH 5.0 or 6.5) + 1% glucose, 30°C, 100 μM peptide, TNBS A420, slope 0- to 10-min
Protocol: as §1

[10] = test system: C. albicans ptr2Δ ptr22Δ; test: Initial peptide uptake rate; assay type: cell-based, Candida albicans; conditions: 50 mM potassium phosphate buffer (pH 5.0 or 6.5) + 1% glucose, 30°C, 100 μM peptide, TNBS A420, slope 0- to 10-min
Protocol: as §1

Row | Compound | Velocity of proteolytic cleavage relative to F6, F7, and F11 [1] | Initial uptake rate relative to wild type SC5314 cells [2] | Uptake rate ± SD [3] | Uptake rate ± SD [4] | Uptake rate ± SD [5] | Uptake rate ± SD [6] | Uptake rate ± SD [7] | Uptake rate ± SD [8] | Uptake rate ± SD [9] | Uptake rate ± SD [10]
1 | CCC[C@H](NC(=O)[C@@H](N)CCCCN)C(=O)N[C@@H](Cc1ccccc1)C(=O)N[C@@H](CCSC)C(=O)N[C@@H](CC(=O)O)C(=O)N1CCC[C@H]1C(=O)O [Peptide F3, Lys-Nva-FMDP] (H-K[Nva]FMDP-OH) | two to three times higher | lower | 4.32 ± 0.14 nmol min^-1 (mg dry weight)^-1 | 2.98 ± 0.18 nmol min^-1 (mg dry weight)^-1 | <0.1 nmol min^-1 (mg dry weight)^-1 | 3.23 ± 0.19 nmol min^-1 (mg dry weight)^-1 | 4.19 ± 0.16 nmol min^-1 (mg dry weight)^-1 | 4.08 ± 0.14 nmol min^-1 (mg dry weight)^-1 | 4.12 ± 0.15 nmol min^-1 (mg dry weight)^-1 | 0.11 ± 0.04 nmol min^-1 (mg dry weight)^-1
2 | CCC[C@H](N)C(=O)N[C@@H](Cc1ccccc1)C(=O)N[C@@H](CCSC)C(=O)N[C@@H](CC(=O)O)C(=O)N1CCC[C@H]1C(=O)O [Peptide F2, Nva-FMDP] (H-[Nva]FMDP-OH) | two to three times higher | remarkably lower | 4.83 ± 0.11 nmol min^-1 (mg dry weight)^-1 | 4.05 ± 0.18 nmol min^-1 (mg dry weight)^-1 | <0.1 nmol min^-1 (mg dry weight)^-1 | 4.80 ± 0.15 nmol min^-1 (mg dry weight)^-1 | 4.78 ± 0.11 nmol min^-1 (mg dry weight)^-1 | 4.75 ± 0.09 nmol min^-1 (mg dry weight)^-1 | 4.86 ± 0.14 nmol min^-1 (mg dry weight)^-1 | <0.1 nmol min^-1 (mg dry weight)^-1
